# Source: patent US10596254B2 (priority 2003, dated 2020)
# Square brackets hold non-standard residues; d marks the D form. Ends that are not written are not given here. Cha = N[C@@H](CC1CCCCC1)C(=O)O
# Experiments:
# [1] = system: I9V-loaded JA2 cells; experiment: Chromium release assay, cells from immunized HHD II mice, I9V-loaded JA2 targets; format: in vivo; details: three mice each
# From the text: HHD II mice were immunized with 1 nmole of either Conjugate 7 or Conjugate 3 (which is the same as Conjugate 7 but also contains PADRE). […].
# To address whether the defect in Conjugate 7 immunogenicity was the missing PADRE TH epitope, immunizations with Conjugate 7 plus PADRE TH were compared to immunizations with Conjugate 7 alone. […]. […] Further, the majority of the stimulating activity of the PADRE epitope is caused by the sequence itself, rather than the artificial junction caused by chimerizing the CTL and TH epitopes, since Conjugate 3 and Conjugate 7 plus PADRE in trans have similar immunogenicity. Similar fusion peptides, including a fusion peptide composed of PADRE and an HPV-specific CTL epitope, have been administered to volunteers and women with cervical neoplasia without causing observable autoimmunity
# [2] = system: targets labeled with I9V peptide; experiment: Chromium release assay of immune splenocytes from immunized HLA A2/Kb mice, I9V-loaded targets; format: in vivo; details: two doses of 50 nmoles; E:T ratio of 100
# Procedure: Fourteen days later, the spleens were retrieved. The CTL responses of the immune splenocytes were tested after one round of in vitro stimulation (IVS). […] […]. […] This experiment was repeated four times with similar results each time. Using a two-tailed T test, there was a significant difference of P<0.03 at all E:T ratios. […].
# […]; SEQ ID NO:10). See Hartmann et al., J. Immunol. 164:1617-1624, 2000. The chemical yield and purity of this conjugate were similar to the others synthesized above using CpG 1826 (murine). […] […] The CpG-ODN used in Conjugate 10 also is known under the trade names ProMune™ or Vaxmune™ (Coley Pharmaceutical Group).
# [3] = system: recombinant vaccinia virus expressing the HIV-pol gene; parameters: species or system mice; details: mouse, in vivo
# [4] = fmoc spps; Wang resin (substitution about 0.8 mmole/g), Novabiochem; HBTU/DIEA; details: conjugation step, scale approximately 0.22 mmole (0.4 g Fmoc-AA-Wang resin); for final hplc purity: Method B, 260 nm
substance,measurement,setting,value
"AKXVAAWTLKAAAILKEPVHGV, X = cyclohexylalanine (AK[Cha]VAAWTLKAAAILKEPVHGV) [PADRE:I9V fusion peptide]",immunogenicity (chromium release),[1],little immunogenicity
same,target cell lysis,[2],8%
same,protection against viral challenge,[3],equivalently unprotected
KSS:PADRE:S9L + Oligo 3,final hplc purity,[4],about 70-80% pure
same,step mass,[4],About 6.0 mg
PADRE:I9V:N:S9L + Oligo 3,final hplc purity,[4],70-80% pure
same,step mass,[4],About 8.0 mg
